Measured values as given in patent US20190183948A1, “USE OF BCL-XL INHIBITOR AND ONCOLYTIC VIRUS IN PREPARATION OF ANTITUMOR DRUG” (GUANGZHOU VIROTECH PHARMACEUTICAL CO., LTD., priority 2016, published 2019).

Key:
[1] = test system: human liver cancer cell Hep3B; test: MTT survival rate (Example 2), Hep3B; format: cell-based; conditions: 48 hours, inhibitor 100 nM, M1 MOI=0.001
Method: a) Inoculation of cells and administration treatment: The cells in the exponential growth phase were selected and added into a DMEM complete culture medium (containing 10% fetal bovine serum and 1% penicillin/streptomycin (Life Technologies)) to prepare a cell suspension. The cells were inoculated into a 96-well culture plate at a density of 4×10^3/well. After 12 hours, the cells were completely adherent to the wall. […] The dose was used as follows: M1 virus that infected the cells; different dose gradient set for M1 virus. b) Reaction of MTT (3-(4,5-dimethylthiazol-2-yl)-2,5-diphenyltetrazolium bromide or methyl thiazolyl tetrazolium) with succinate dehydrogenase in the cells: 48 hours after culture, 20 μl of MIT (5 mg/ml) was added into each well, and was incubated for further 4 hours. After incubation, granular blue and purple formazan crystals formed in the living cells were observed by microscopic examination. c) Dissolution of formazan particles formed in the cells was accomplished as follows: the supernatant was carefully sucked off, and 100 μl/well of DMSO was added to dissolve the formed crystals, and was shaken in a microoscillator for 5 minutes. Then, the optical density (OD value) of each well was detected in an enzyme linked detector at a wavelength of 570 nm. The experiments were repeated for 3 times for each group. […]

[2] = test system: Hep3B transplantable tumor; test: Transplantable tumor growth in nude mice, Hep3B (Example 4); format: in vivo, BALB/c nude mice; conditions: Hep3B s.c. in nude mice; ABT-263 i.p. 10 mg/kg/d, M1 tail vein 2×10^6 PFU/time, three injections
Method: (§1) This experiment was designed in a randomized, single-blind way. 5×10^6 Hep3B or LoVo cells were subcutaneously injected into dorsa of the 4-week-aged BALB/c nude mice.
(§2) The weight, length and width of the tumor were measured every two days, and the volume of the tumor was calculated according to the formula: (length×width 2)/2. After the volume of the tumor was measured, One-way ANOVA statistics was carried out, wherein *** represented p<0.001 and **represented p<0.01.

[3] = test system: LoVo transplantable tumor; test: Transplantable tumor growth in nude mice, LoVo (Example 4); format: in vivo, BALB/c nude mice; conditions: LoVo s.c. in nude mice; ABT-263 i.p. 10 mg/kg/d, M1 tail vein 2×10^6 PFU/time, three injections
Method: as §1, §2

[4] = biological target: T1, Bcl-w (Homo sapiens, UniProt Q92843); conditions: cited from earlier work
T1 sequence (Q92843 1-193): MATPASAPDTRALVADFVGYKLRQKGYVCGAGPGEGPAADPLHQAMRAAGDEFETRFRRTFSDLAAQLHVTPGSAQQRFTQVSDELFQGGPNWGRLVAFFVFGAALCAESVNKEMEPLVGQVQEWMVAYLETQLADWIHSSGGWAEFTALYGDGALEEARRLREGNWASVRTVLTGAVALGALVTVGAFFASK

[5] = biological target: Mcl-1 (Homo sapiens, UniProt Q07820); conditions: cited from earlier work
[6] = biological target: T2, A1 (Homo sapiens, UniProt Q16548); conditions: cited from earlier work
T2 sequence (Q16548 1-175): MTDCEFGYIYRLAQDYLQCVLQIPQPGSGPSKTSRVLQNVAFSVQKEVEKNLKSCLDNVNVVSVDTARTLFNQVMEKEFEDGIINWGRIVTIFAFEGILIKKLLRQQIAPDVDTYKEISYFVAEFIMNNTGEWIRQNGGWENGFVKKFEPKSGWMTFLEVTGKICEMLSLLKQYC

[7] = biological target: T3, Bcl-B (Homo sapiens, UniProt Q9HD36); conditions: cited from earlier work
T3 sequence (Q9HD36 1-204): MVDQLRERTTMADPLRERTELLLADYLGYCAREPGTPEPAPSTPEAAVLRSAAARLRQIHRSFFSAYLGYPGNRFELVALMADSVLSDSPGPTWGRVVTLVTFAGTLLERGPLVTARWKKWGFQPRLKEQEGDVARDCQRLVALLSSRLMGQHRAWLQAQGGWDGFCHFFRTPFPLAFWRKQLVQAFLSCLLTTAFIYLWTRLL

[8] = biological target: T4, Bfl-1 (Homo sapiens, UniProt Q16548); conditions: cited from earlier work
T4 sequence (Q16548 1-175): T2 sequence (Q16548 1-175)

Sequence of Mcl-1 (Q07820 whole entry, species assumed): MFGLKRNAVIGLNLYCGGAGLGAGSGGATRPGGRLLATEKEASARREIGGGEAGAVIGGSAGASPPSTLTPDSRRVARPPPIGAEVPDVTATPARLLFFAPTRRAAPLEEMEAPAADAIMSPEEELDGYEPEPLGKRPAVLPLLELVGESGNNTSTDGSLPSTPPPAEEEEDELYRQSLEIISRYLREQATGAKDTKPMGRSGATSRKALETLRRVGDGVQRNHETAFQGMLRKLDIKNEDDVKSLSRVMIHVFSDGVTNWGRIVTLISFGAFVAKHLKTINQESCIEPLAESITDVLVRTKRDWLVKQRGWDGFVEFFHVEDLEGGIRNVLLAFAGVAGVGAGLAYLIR

SMILES	survival rate of the tumor cells [1]	tumor volume vs control group [2]	tumor volume vs control group [3]	Ki [4]	binding / inhibitory effect on Mcl-1 [5]	binding to A1 [6]	inhibitory effect on Bcl-B [7]	inhibitory effect on Bfl-1 [8]
CC1(C)CCC(c2ccc(Cl)cc2)=C(CN2CCN(c3ccc(C(=O)NS(=O)(=O)c4ccc(N[C@H](CCN5CCOCC5)CSc5ccccc5)c(S(=O)(=O)C(F)(F)F)c4)cc3)CC2)C1 [ABT-263]	88.8%	slight shrinkage of the tumor volume	slight shrinkage of the tumor volume	≤ 1 nM	binds weakly	binds weakly	–	–
CC1(C)CCC(CN2CCN(c3ccc(C(=O)NS(=O)(=O)c4ccc(NCC5CCOCC5)c([N+](=O)[O-])c4)c(Oc4cnc5[nH]ccc5c4)c3)CC2)=C(c2ccc(Cl)cc2)C1 [ABT-199]	–	–	–	–	no activity	–	–	–
CN(C)CC[C@H](CSc1ccccc1)Nc1ccc(S(=O)(=O)NC(=O)c2ccc(N3CCN(Cc4ccccc4-c4ccc(Cl)cc4)CC3)cc2)cc1[N+](=O)[O-] [ABT-737]	–	–	–	–	no inhibitory effect	–	no inhibitory effect	no inhibitory effect
